Assay results: patent US20250325555A1, “Method of Treating Obesity with a Luteinizing Hormone Receptor Agonist” (ICAHN SCHOOL OF MEDICINE AT MOUNT SINAI, priority 2022, published 2025)
pEC50: −log10 of the molar value.

Experiments:
adipose LHCGR = target: T1, adipose LHCGR (Mus musculus, UniProt P30730); experiment: ERK1/2 phosphorylation in differentiated 3T3-L1 adipocytes (Western blot); assay type: cell-based
T1 construct: host or cells: differentiated 3T3-L1 adipocytes
Excerpt: siRNA KNOCKDOWN: Lentiviral vectors expressing Lhcgr siRNA (ABM 2649609) or siControl (ABM LVP015-G) were used per manufacturer's recommendation.
WESTERN BLOTTING: Proteins were blotted with commercial antibodies (Cell Signaling, Phospho-ERK1/2, 9101S; ERK1/2, 4695S, 1:5000).

3T3-L1 adipocytes [1] = experiment: oil droplet accumulation (Oil Red O staining) in 3T3-L1 adipocytes; assay type: cell-based, mouse; details: 6 nM, 12 hours
Method: (§1) In order to study the mechanism of LHCGR activation on body fat, 3T3.L1 pre-adipocytes and adipose organoids were used. Oil Red 0 staining can be used to mark lipid-containing vacuoles and quantify cell lipid content. […] The thickness of the “differentiating cell layer” was measured with QuPath-0.2.3.

[2] = system: C57BL/6 mice fed on high-fat diet; experiment: ORG 43553 in C57BL/6 mice on high-fat diet, 9 weeks (Example 6); assay type: in vivo, mouse; details: 17 mg/kg subcutaneous
Method: In order to evaluate the effect of treatment with LHCGR agonist ORG 43553 on body fat in mice, 14-week-old C57BL/6 mice (25 mice/group) were treated with subcutaneous injections of vehicle or ORG 43553 (17 mg/kg), and fed on high-fat diet for 9 weeks.

male C57BL/6 mice = experiment: ORG 43553 in male C57BL/6 mice, 9 weeks (Example 8, incl. replication cohort); assay type: in vivo, mouse
Method: Next, the LHCGR agonist ORG 43553 was injected into male C57BL/6 mice (N=24/group) (17 mg/kg, subcutaneous, twice-a-week) for 9 weeks.

[3] = system: organoids derived from 3T3-L1 cells; experiment: adipose organoids derived from 3T3-L1 cells, thickness of differentiating cell layer; assay type: cell-based, mouse; details: exposed for 3 days, further differentiated 7 days
Method: as §1

3T3-L1 adipocytes [4] = experiment: oxygen consumption rate (OCR) on Seahorse Xf96 Analyzer; assay type: cell-based, mouse; details: pretreated for 1 hour
Method: (§2) 3T3-L1 adipocytes were thus pretreated with ORG 43553 for 1 hour before measuring oxygen consumption rate (OCR) on a Seahorse Xf96 Analyzer. […] ORG 43553 increased OCR at baseline and upon oligomycin exposure, indicating mitochondria proton leak—a surrogate for thermogenesis. To confirm increased energy expenditure in vivo, mice (N=6/group) on high-fat diet were acclimated to metabolic cages for 1 day, before being injected subcutaneously with ORG 43553 (17 mg/kg, blue line) or vehicle and monitored for 48 hours.

mice on high-fat diet = experiment: metabolic cages, mice on high-fat diet; assay type: in vivo, mouse; details: 17 mg/kg subcutaneous, monitored for 48 hours
Method: as §2

human LHCGR = human LHCGR (Homo sapiens, UniProt P22888); details: read-out: EC50, agonistic activity to human LHCGR; cited from earlier work
Sequence of human LHCGR (P22888 27-699): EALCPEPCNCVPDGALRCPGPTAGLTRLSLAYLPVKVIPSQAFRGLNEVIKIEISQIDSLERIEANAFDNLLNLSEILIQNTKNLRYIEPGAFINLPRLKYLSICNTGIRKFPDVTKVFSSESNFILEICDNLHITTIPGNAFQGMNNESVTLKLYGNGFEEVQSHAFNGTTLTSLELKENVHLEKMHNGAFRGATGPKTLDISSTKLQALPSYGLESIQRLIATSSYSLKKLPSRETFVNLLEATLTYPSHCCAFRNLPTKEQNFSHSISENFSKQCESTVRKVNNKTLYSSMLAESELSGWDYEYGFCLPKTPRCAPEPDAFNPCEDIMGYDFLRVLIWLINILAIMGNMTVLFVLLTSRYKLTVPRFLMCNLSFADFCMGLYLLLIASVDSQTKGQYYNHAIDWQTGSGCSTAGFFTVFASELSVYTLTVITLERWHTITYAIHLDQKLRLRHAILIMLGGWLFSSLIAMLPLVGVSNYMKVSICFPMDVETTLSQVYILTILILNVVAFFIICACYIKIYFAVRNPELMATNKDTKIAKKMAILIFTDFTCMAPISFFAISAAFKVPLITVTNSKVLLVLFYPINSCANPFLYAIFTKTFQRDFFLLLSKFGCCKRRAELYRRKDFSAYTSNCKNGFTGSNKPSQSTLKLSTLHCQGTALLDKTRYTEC

[5] = 17 mg/kg subcutaneous twice-a-week, 9 weeks

T1 sequence (P30730 27-700): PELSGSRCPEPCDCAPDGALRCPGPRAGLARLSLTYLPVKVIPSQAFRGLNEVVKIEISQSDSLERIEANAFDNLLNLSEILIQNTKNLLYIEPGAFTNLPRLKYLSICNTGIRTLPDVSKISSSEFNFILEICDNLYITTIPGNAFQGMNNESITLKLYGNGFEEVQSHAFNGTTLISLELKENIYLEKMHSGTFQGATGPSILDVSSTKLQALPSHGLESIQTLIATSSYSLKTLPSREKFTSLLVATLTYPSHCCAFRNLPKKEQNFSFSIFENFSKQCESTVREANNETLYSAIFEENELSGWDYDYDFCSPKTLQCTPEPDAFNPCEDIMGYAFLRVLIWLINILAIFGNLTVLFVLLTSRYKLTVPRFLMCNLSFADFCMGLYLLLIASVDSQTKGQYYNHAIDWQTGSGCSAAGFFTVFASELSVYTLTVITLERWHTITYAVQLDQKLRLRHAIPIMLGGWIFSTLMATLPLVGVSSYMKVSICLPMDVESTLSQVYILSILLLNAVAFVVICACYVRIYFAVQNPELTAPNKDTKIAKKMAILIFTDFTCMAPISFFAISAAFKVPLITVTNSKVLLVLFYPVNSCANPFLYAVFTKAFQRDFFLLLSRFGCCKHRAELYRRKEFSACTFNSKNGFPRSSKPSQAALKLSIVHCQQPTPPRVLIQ

## CSc1nc(-c2cccc(NC(=O)CN3CCOCC3)c2)c2c(N)c(C(=O)NC(C)(C)C)sc2n1 [ORG 43553, 5-amino-2-methylsulfanyl-4-[3-(2-morpholin-4-yl-acetylamino)-phenyl]-thieno[2,3-d]pyrimidine-6-carboxylic acid tert-butylamide]
Adipose LHCGR; differentiated 3T3-L1 adipocytes
  ERK1/2 phosphorylation: rapidly induced ERK1/2 phosphorylation in a concentration-dependent manner
Adipose LHCGR; siLhcgr 3T3-L1 cells
  ERK1/2 phosphorylation with LHCGR siRNA knockdown: no signal
3T3-L1 adipocytes [1]
  oil droplet accumulation (Oil Red O staining): reduced oil droplet accumulation
[2]
  diet-induced fat mass: reduced
  gWAT weight: lower
  iWAT weight: lower
  lean mass: but not lean mass
  mWAT weight: lower
  total mass: reduced
Male C57BL/6 mice; [5]
  fat mass: significant reduction
  gWAT: reduced
  iWAT: reduced
  number of adipocytes in iWAT with areas below 4000 μm^2: greater numbers
  number of adipocytes in iWAT with areas greater than 4000 μm^2: fewer
  renal WAT (rWAT): reduced
Male C57BL/6 mice; replication cohort
  fat mass: significant reduction
  gWAT: reduced
  iWAT: reduced
  mWAT: reduced
  total mass: significant reduction
[3]
  differentiated layer of organoids (thickness) compared to vehicle-treated organoids: substantial reduction
3T3-L1 adipocytes [4]
  oxygen consumption rate (OCR) at baseline: increased
  oxygen consumption rate (OCR) upon oligomycin exposure: increased
Mice on high-fat diet
  energy expenditure (EE): increased acutely
  oxygen consumption (VO2): increased acutely
Human LHCGR
  pEC50: 8.43
